According to ChEMBL document CHEMBL1201861, “Genomics of Drug Sensitity in Cancer screening data, Wellcome Trust Sanger Institute”:
Structures can show the parent of a compound that is named as a salt.

How the values were obtained:
[1] = system: GMS-10; experiment: cells; type: functional, cell-based, Homo sapiens; settings: Homo sapiens, GMS-10;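 also: growth inhibition of GMS-10 cells, read out as cell viability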
Description: SANGER: Inhibition of human GMS-10 cell growth in a cell viability assay.

[2] = system: SNU-387; experiment: cells; type: functional, cell-based, Homo sapiens; settings: Homo sapiens, SNU-387
Description: SANGER: Inhibition of human SNU-387 cell growth in a cell viability assay.

[3] = system: CAKI-1; experiment: cells; type: functional, cell-based, Homo sapiens; settings: Homo sapiens, CAKI-1;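 also: growth inhibition of CAKI-1 cells, measured by a cell viability assay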
Description: SANGER: Inhibition of human CAKI-1 cell growth in a cell viability assay.

[4] = system: CAL-54; experiment: cells; type: functional, cell-based, Homo sapiens; settings: Homo sapiens, CAL-54;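 also: growth inhibition of CAL-54 cells, read out by a viability measurement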
Description: SANGER: Inhibition of human CAL-54 cell growth in a cell viability assay.

[5] = system: LU-165; experiment: cells; type: functional, cell-based, Homo sapiens; settings: Homo sapiens, LU-165
Description: SANGER: Inhibition of human LU-165 cell growth in a cell viability assay.

[6] = system: GAMG; experiment: cells; type: functional, cell-based, Homo sapiens; settings: Homo sapiens, GAMG;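 also: cell growth inhibition measured by a viability assay in the GAMG human cell line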
Description: SANGER: Inhibition of human GAMG cell growth in a cell viability assay.

[7] = system: SW1463; experiment: cells; type: functional, cell-based, Homo sapiens; settings: Homo sapiens, SW1463;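 also: growth inhibition of SW1463 cells, determined with a cell viability assay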
Description: SANGER: Inhibition of human SW1463 cell growth in a cell viability assay.

[8] = system: IMR-5; experiment: cells; type: functional, cell-based, Homo sapiens; settings: Homo sapiens, IMR-5;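 also: growth inhibition of human IMR-5 cells, read out with a cell viability assay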
Description: SANGER: Inhibition of human IMR-5 cell growth in a cell viability assay.

[9] = system: CAL-85-1; experiment: cells; type: functional, cell-based, Homo sapiens; settings: Homo sapiens, CAL-85-1;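 also: growth inhibition of human CAL-85-1 cells, read out with a cell viability assay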
Description: SANGER: Inhibition of human CAL-85-1 cell growth in a cell viability assay.

[10] = system: SK-LU-1; experiment: cells; type: functional, cell-based, Homo sapiens; settings: Homo sapiens, SK-LU-1;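 also: cell viability assay measuring growth inhibition of human SK-LU-1 cells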
Description: SANGER: Inhibition of human SK-LU-1 cell growth in a cell viability assay.

[11] = system: OVCAR-3; experiment: cells; type: functional, cell-based, Homo sapiens; settings: Homo sapiens, OVCAR-3;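 also: growth inhibition of human OVCAR-3 cells, determined by a cell viability assay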
Description: SANGER: Inhibition of human OVCAR-3 cell growth in a cell viability assay.

[12] = system: COR-L279; experiment: SANGER: Inhibition of human COR-L279 cell growth in a cell viability assay.; type: functional, cell-based; settings: Homo sapiens, COR-L279
[13] = system: NCI-H28; experiment: cells; type: functional, cell-based, Homo sapiens; settings: Homo sapiens, NCI-H28;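 also: growth inhibition of human NCI-H28 cells, read out as cell viability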
Description: SANGER: Inhibition of human NCI-H28 cell growth in a cell viability assay.

[14] = system: NCI-H2171; experiment: cells; type: functional, cell-based, Homo sapiens; settings: Homo sapiens, NCI-H2171;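 also: growth inhibition of human NCI-H2171 cells, read out by a cell viability assay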
Description: SANGER: Inhibition of human NCI-H2171 cell growth in a cell viability assay.

[15] = system: DG-75; experiment: cells; type: functional, cell-based, Homo sapiens; settings: Homo sapiens, DG-75;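 also: growth inhibition of DG-75 cells, read out with a cell viability assay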
Description: SANGER: Inhibition of human DG-75 cell growth in a cell viability assay.

[16] = system: MEL-HO; experiment: cells; type: functional, cell-based, Homo sapiens; settings: Homo sapiens, MEL-HO
Description: SANGER: Inhibition of human MEL-HO cell growth in a cell viability assay.

[17] = system: RO82-W-1; experiment: cells; type: functional, cell-based, Homo sapiens; settings: Homo sapiens, RO82-W-1;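 also: growth inhibition of human RO82-W-1 cells, measured with a cell viability assay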
Description: SANGER: Inhibition of human RO82-W-1 cell growth in a cell viability assay.

[18] = system: SCLC-21H; experiment: cells; type: functional, cell-based, Homo sapiens; settings: Homo sapiens, SCLC-21H;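 also: growth inhibition of cultured human SCLC-21H cells, read out with a cell viability assay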
Description: SANGER: Inhibition of human SCLC-21H cell growth in a cell viability assay.

[19] = system: NCI-H1563; experiment: cells; type: functional, cell-based, Homo sapiens; settings: Homo sapiens, NCI-H1563;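 also: growth inhibition of human NCI-H1563 cells, read out with a cell viability assay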
Description: SANGER: Inhibition of human NCI-H1563 cell growth in a cell viability assay.

[20] = system: BCPAP; experiment: cells; type: functional, cell-based, Homo sapiens; settings: Homo sapiens, BCPAP;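 also: growth inhibition of BCPAP cells, read out in a cell viability assay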
Description: SANGER: Inhibition of human BCPAP cell growth in a cell viability assay.

[21] = system: HO-1-N-1; experiment: cells; type: functional, cell-based, Homo sapiens; settings: Homo sapiens, HO-1-N-1;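 also: growth inhibition of human HO-1-N-1 cells, read out with a cell viability assay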
Description: SANGER: Inhibition of human HO-1-N-1 cell growth in a cell viability assay.

[22] = system: VM-CUB-1; experiment: cells; type: functional, cell-based, Homo sapiens; settings: Homo sapiens, VM-CUB-1;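 also: cell viability assay measuring growth inhibition of the human VM-CUB-1 cell line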
Description: SANGER: Inhibition of human VM-CUB-1 cell growth in a cell viability assay.

[23] = system: HN; experiment: cells; type: functional, cell-based, Homo sapiens; settings: Homo sapiens, HN
Description: SANGER: Inhibition of human HN cell growth in a cell viability assay.

[24] = system: NCI-H2052; experiment: cells; type: functional, cell-based, Homo sapiens; settings: Homo sapiens, NCI-H2052;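 also: growth inhibition of NCI-H2052 cells, read out with a cell viability assay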
Description: SANGER: Inhibition of human NCI-H2052 cell growth in a cell viability assay.

[25] = system: HT-1080; experiment: cells; type: functional, cell-based, Homo sapiens; settings: Homo sapiens, HT-1080
Description: SANGER: Inhibition of human HT-1080 cell growth in a cell viability assay.

[26] = system: RVH-421; experiment: cells; type: functional, cell-based, Homo sapiens; settings: Homo sapiens, RVH-421
Description: SANGER: Inhibition of human RVH-421 cell growth in a cell viability assay.

[27] = system: KYSE-510; experiment: cells; type: functional, cell-based, Homo sapiens; settings: Homo sapiens, KYSE-510;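 also: cell viability readout used to measure how strongly growth of the cell line is suppressed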
Description: SANGER: Inhibition of human KYSE-510 cell growth in a cell viability assay.

[28] = system: GP5d; experiment: cells; type: functional, cell-based, Homo sapiens; settings: Homo sapiens, GP5d;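 also: growth inhibition of human GP5d cells, read out with a cell viability assay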
Description: SANGER: Inhibition of human GP5d cell growth in a cell viability assay.

[29] = system: HuP-T3; experiment: cells; type: functional, cell-based, Homo sapiens; settings: Homo sapiens, HuP-T3;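 also: HuP-T3 cell growth inhibition, read out with a cell viability assay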
Description: SANGER: Inhibition of human HuP-T3 cell growth in a cell viability assay.

[30] = system: M059J; experiment: cells; type: functional, cell-based, Homo sapiens; settings: Homo sapiens, M059J;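 also: growth inhibition of M059J cells, read out with a cell viability assay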
Description: SANGER: Inhibition of human M059J cell growth in a cell viability assay.

[31] = system: NCI-H1963; experiment: cells; type: functional, cell-based, Homo sapiens; settings: Homo sapiens, NCI-H1963;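 also: cell growth inhibition of the human line, determined with a cell viability assay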
Description: SANGER: Inhibition of human NCI-H1963 cell growth in a cell viability assay.

[32] = system: PC-3; experiment: cells; type: functional, cell-based, Homo sapiens; settings: Homo sapiens, PC-3
Description: SANGER: Inhibition of human PC-3 cell growth in a cell viability assay.

[33] = system: COLO-680N; experiment: cells; type: functional, cell-based, Homo sapiens; settings: Homo sapiens, COLO-680N;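 also: cell viability assay used to measure inhibition of COLO-680N cell growth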
Description: SANGER: Inhibition of human COLO-680N cell growth in a cell viability assay.

[34] = system: SUP-T1; experiment: cells; type: functional, cell-based, Homo sapiens; settings: Homo sapiens, SUP-T1;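 also: growth inhibition of human SUP-T1 cells, read out as cell viability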
Description: SANGER: Inhibition of human SUP-T1 cell growth in a cell viability assay.

[35] = system: IGR-1; experiment: cells; type: functional, cell-based, Homo sapiens; settings: Homo sapiens, IGR-1;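 also: growth inhibition of human IGR-1 cells, read out with a cell viability assay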
Description: SANGER: Inhibition of human IGR-1 cell growth in a cell viability assay.

[36] = system: LB647-SCLC; experiment: cells; type: functional, cell-based, Homo sapiens; settings: Homo sapiens, LB647-SCLC;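 also: cell growth inhibition, read out by a viability assay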
Description: SANGER: Inhibition of human LB647-SCLC cell growth in a cell viability assay.

[37] = system: CAL-148; experiment: cells; type: functional, cell-based, Homo sapiens; settings: Homo sapiens, CAL-148
Description: SANGER: Inhibition of human CAL-148 cell growth in a cell viability assay.

[38] = system: MONO-MAC-6; experiment: cells; type: functional, cell-based, Homo sapiens; settings: Homo sapiens, MONO-MAC-6;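 also: cell viability assay measuring growth inhibition of human MONO-MAC-6 cells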
Description: SANGER: Inhibition of human MONO-MAC-6 cell growth in a cell viability assay.

[39] = system: NCI-H2081; experiment: cells; type: functional, cell-based, Homo sapiens; settings: Homo sapiens, NCI-H2081;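 also: growth inhibition of human NCI-H2081 cells, read out with a cell viability assay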
Description: SANGER: Inhibition of human NCI-H2081 cell growth in a cell viability assay.

[40] = system: HCC1419; experiment: cells; type: functional, cell-based, Homo sapiens; settings: Homo sapiens, HCC1419;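 also: growth inhibition of human HCC1419 cells, read out as cell viability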
Description: SANGER: Inhibition of human HCC1419 cell growth in a cell viability assay.

[41] = system: NCI-H596; experiment: cells; type: functional, cell-based, Homo sapiens; settings: Homo sapiens, NCI-H596;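 also: growth inhibition of NCI-H596 cells, read out with a cell viability assay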
Description: SANGER: Inhibition of human NCI-H596 cell growth in a cell viability assay.

[42] = system: BL-70; experiment: SANGER: Inhibition of human BL-70 cell growth in a cell viability assay.; type: functional, cell-based; settings: Homo sapiens, BL-70
[43] = system: EB2; experiment: cells; type: functional, cell-based, Homo sapiens; settings: Homo sapiens, EB2;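 also: growth inhibition of EB2 cells, read out with a cell viability assay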
Description: SANGER: Inhibition of human EB2 cell growth in a cell viability assay.

[44] = system: BXPC-3; experiment: cells; type: functional, cell-based, Homo sapiens; settings: Homo sapiens, BXPC-3;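 also: growth inhibition of human BxPC-3 cells, read out by a cell viability assay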
Description: SANGER: Inhibition of human BxPC-3 cell growth in a cell viability assay.

## Oc1ccc2ccccc2c1SSc1c(O)ccc2ccccc12
[1]
  IC50: > 32000 nM
[2]
  IC50: > 32000 nM
[3]
  IC50: > 32000 nM
[4]
  IC50: > 32000 nM
[5]
  IC50: > 32000 nM
[6]
  IC50: > 32000 nM
[7]
  IC50: > 32000 nM
[8]
  IC50: > 32000 nM
[9]
  IC50: 7370 nM
[10]
  IC50: 18900 nM
[11]
  IC50: > 32000 nM
[12]
  IC50: > 32000 nM
[13]
  IC50: > 32000 nM
[14]
  IC50: > 32000 nM
[15]
  IC50: > 32000 nM
[16]
  IC50: > 32000 nM
[17]
  IC50: > 32000 nM
[18]
  IC50: > 32000 nM
[19]
  IC50: > 32000 nM
[20]
  IC50: > 32000 nM
[21]
  IC50: > 32000 nM
[22]
  IC50: > 32000 nM
[23]
  IC50: > 32000 nM
[24]
  IC50: > 32000 nM
[25]
  IC50: 18600 nM
[26]
  IC50: > 32000 nM
[27]
  IC50: > 32000 nM
[28]
  IC50: > 32000 nM
[29]
  IC50: > 32000 nM
[30]
  IC50: > 32000 nM
[31]
  IC50: > 32000 nM
[32]
  IC50: > 32000 nM
[33]
  IC50: > 32000 nM
[34]
  IC50: > 32000 nM
[35]
  IC50: > 32000 nM
[36]
  IC50: 7300 nM
[37]
  IC50: > 32000 nM
[38]
  IC50: > 32000 nM
[39]
  IC50: > 32000 nM
[40]
  IC50: > 32000 nM
[41]
  IC50: > 32000 nM
[42]
  IC50: 2040 nM
[43]
  IC50: 4490 nM
[44]
  IC50: > 32000 nM

## CCC/C=C/C=C/C(=O)O[C@H]1/C(=C/C(=O)OC)C[C@H]2C[C@H]([C@@H](C)O)OC(=O)C[C@H](O)C[C@@H]3C[C@H](OC(C)=O)C(C)(C)[C@](O)(C[C@@H]4C/C(=C/C(=O)OC)C[C@H](/C=C/C(C)(C)[C@]1(O)O2)O4)O3 [BRYOSTATIN 1]
[1]
  IC50: > 8 nM
[2]
  IC50: > 8 nM
[3]
  IC50: > 8 nM
[4]
  IC50: > 8 nM
[5]
  IC50: > 8 nM
[6]
  IC50: > 8 nM
[7]
  IC50: > 8 nM
[8]
  IC50: > 8 nM
[9]
  IC50: 5.52 nM
[10]
  IC50: > 8 nM
[11]
  IC50: > 8 nM
[12]
  IC50: > 8 nM
[13]
  IC50: > 8 nM
[14]
  IC50: > 8 nM
[15]
  IC50: > 8 nM
[16]
  IC50: > 8 nM
[17]
  IC50: > 8 nM
[18]
  IC50: > 8 nM
[19]
  IC50: > 8 nM
[20]
  IC50: > 8 nM
[21]
  IC50: > 8 nM
[22]
  IC50: > 8 nM
[23]
  IC50: > 8 nM
[24]
  IC50: > 8 nM
[25]
  IC50: > 8 nM
[26]
  IC50: > 8 nM
[27]
  IC50: > 8 nM
[28]
  IC50: > 8 nM
[29]
  IC50: > 8 nM
[30]
  IC50: 2 nM
[31]
  IC50: > 8 nM
[32]
  IC50: > 8 nM
[33]
  IC50: > 8 nM
[34]
  IC50: > 8 nM
[35]
  IC50: > 8 nM
[36]
  IC50: > 8 nM
[37]
  IC50: > 8 nM
[38]
  IC50: > 8 nM
[39]
  IC50: > 8 nM
[40]
  IC50: > 8 nM
[41]
  IC50: > 8 nM
[42]
  IC50: > 8 nM
[43]
  IC50: > 8 nM
[44]
  IC50: > 8 nM

## COC1=CC(c2cc3ccccc3[nH]2)=N/C1=C\c1[nH]c(C)cc1C [OBATOCLAX MESYLATE]
[1]
  IC50: 2580 nM
[2]
  IC50: 903 nM
[3]
  IC50: 1720 nM
[4]
  IC50: 1310 nM
[5]
  IC50: 5990 nM
[6]
  IC50: 58 nM
[7]
  IC50: 1320 nM
[8]
  IC50: 32.4 nM
[9]
  IC50: 18.3 nM
[10]
  IC50: 134 nM
[11]
  IC50: 516 nM
[12]
  IC50: 572 nM
[13]
  IC50: 741 nM
[14]
  IC50: 850 nM
[15]
  IC50: 6890 nM
[16]
  IC50: 23.5 nM
[17]
  IC50: 2410 nM
[18]
  IC50: 12200 nM
[19]
  IC50: > 16000 nM
[20]
  IC50: 58.9 nM
[21]
  IC50: 92.5 nM
[22]
  IC50: 713 nM
[23]
  IC50: < 62.5 nM
[24]
  IC50: 567 nM
[25]
  IC50: 511 nM
[26]
  IC50: 16.7 nM
[27]
  IC50: < 62.5 nM
[28]
  IC50: 225 nM
[29]
  IC50: 528 nM
[30]
  IC50: 1360 nM
[31]
  IC50: 1050 nM
[32]
  IC50: 1750 nM
[33]
  IC50: 50.5 nM
[34]
  IC50: 29.5 nM
[35]
  IC50: < 62.5 nM
[36]
  IC50: 15700 nM
[37]
  IC50: 1040 nM
[38]
  IC50: 438 nM
[39]
  IC50: 781 nM
[40]
  IC50: 1830 nM
[41]
  IC50: 236 nM
[42]
  IC50: 63 nM
[43]
  IC50: < 62.5 nM
[44]
  IC50: 74.6 nM
